Results: ChEMBL document CHEMBL1201862, “PubChem BioAssay data set” (2004)
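The compound was tested at five concentrations on cells cultured in 96-well plates, with a 48-hour exposure period. At the GI50, growth is halved.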 Active and inactive are the calls of the source. Cut-off read from the data, not from the text of the source: active = GI50 up to about 1.1 µM and inactive = higher.

How the values were obtained:
Test in all cases: NCI tumour cell line growth inhibition, 48 h
A549 = system: A549
CAKI-1 = system: CAKI-1
CCRF-CEM = system: CCRF-CEM
DU-145 = system: DU-145
HT-29 = system: HT-29
M14 = system: M14
MCF7 = system: MCF7
MDA-N = system: MDA-N
Malme-3M = system: Malme-3M
NCI-H522 = system: NCI-H522
OVCAR-3 = system: OVCAR-3
PC-3 = system: PC-3
SF-268 = system: SF-268
SF-539 = system: SF-539
SK-MEL-2 = system: SK-MEL-2
SNB-19 = system: SNB-19
SW-620 = system: SW-620
TK-10 = system: TK-10
UACC-257 = system: UACC-257
UO-31 = system: UO-31

SMILES | GI50 (A549) | GI50 (CAKI-1) | GI50 (CCRF-CEM) | GI50 (DU-145) | GI50 (HT-29) | GI50 (M14) | GI50 (MCF7) | GI50 (MDA-N) | GI50 (Malme-3M) | GI50 (NCI-H522) | GI50 (OVCAR-3) | GI50 (PC-3) | GI50 (SF-268) | GI50 (SF-539) | GI50 (SK-MEL-2) | GI50 (SNB-19) | GI50 (SW-620) | GI50 (TK-10) | GI50 (UACC-257) | GI50 (UO-31)
CCOC1=C(c2ccccc2)N2CCCCC2O1 (stereo not given) | 5.57 µM (inactive) | 26.5 µM (inactive) | 2.94 µM (inactive) | 4.19 µM (inactive) | 2.99 µM (inactive) | 3.46 µM (inactive) | 3.76 µM (inactive) | 4.03 µM (inactive) | 5.7 µM (inactive) | 3.38 µM (inactive) | 3.79 µM (inactive) | 2.61 µM (inactive) | 4.34 µM (inactive) | 9.29 µM (inactive) | 2.25 µM (inactive) | 3.76 µM (inactive) | 4.21 µM (inactive) | 5.32 µM (inactive) | 3.46 µM (inactive) | 19.8 µM (inactive)
COc1ccc2c(c1C)C(=O)C(O)(CC=C(C)C)O2 (stereo not given) | > 100 µM (inactive) | > 100 µM (inactive) | > 100 µM (inactive) | > 100 µM (inactive) | > 100 µM (inactive) | > 100 µM (inactive) | > 100 µM (inactive) | > 100 µM (inactive) | > 100 µM (inactive) | > 100 µM (inactive) | > 100 µM (inactive) | 62.8 µM (inactive) | > 100 µM (inactive) | > 100 µM (inactive) | > 100 µM (inactive) | > 100 µM (inactive) | > 100 µM (inactive) | > 100 µM (inactive) | > 100 µM (inactive) | > 100 µM (inactive)
COc1cccc(CCN2CCN(CCCc3ccccc3)CC2)c1 | 94.6 µM (inactive) | 67.3 µM (inactive) | > 100 µM (inactive) | > 100 µM (inactive) | 31.8 µM (inactive) | 21.2 µM (inactive) | 44.1 µM (inactive) | > 100 µM (inactive) | 55.5 µM (inactive) | 22.6 µM (inactive) | 64.6 µM (inactive) | > 100 µM (inactive) | > 100 µM (inactive) | > 100 µM (inactive) | > 100 µM (inactive) | > 100 µM (inactive) | > 100 µM (inactive) | > 100 µM (inactive) | > 100 µM (inactive) | 51.1 µM (inactive)
C[N+](C)(C)C(Cc1c[nH]c(=S)[nH]1)C(=O)O (stereo not given) | > 100 µM (inactive) | > 100 µM (inactive) | > 100 µM (inactive) | > 100 µM (inactive) | > 100 µM (inactive) | > 100 µM (inactive) | > 100 µM (inactive) | > 100 µM (inactive) | > 100 µM (inactive) | > 100 µM (inactive) | > 100 µM (inactive) | > 100 µM (inactive) | > 100 µM (inactive) | > 100 µM (inactive) | > 100 µM (inactive) | > 100 µM (inactive) | > 100 µM (inactive) | > 100 µM (inactive) | > 100 µM (inactive) | > 100 µM (inactive)
Cc1ccc(-n2c(Cn3nnc(-c4cccnc4)n3)nn(C3OC(COC(=O)c4ccccc4)C(OC(=O)c4ccccc4)C3OC(=O)c3ccccc3)c2=S)cc1 (stereo not given) | > 100 µM (inactive) | > 100 µM (inactive) | > 100 µM (inactive) | > 100 µM (inactive) | > 100 µM (inactive) | > 100 µM (inactive) | > 100 µM (inactive) | > 100 µM (inactive) | 38.4 µM (inactive) | > 100 µM (inactive) | > 100 µM (inactive) | > 100 µM (inactive) | > 100 µM (inactive) | > 100 µM (inactive) | > 100 µM (inactive) | 32.3 µM (inactive) | > 100 µM (inactive) | > 100 µM (inactive) | > 100 µM (inactive) | > 100 µM (inactive)
Cc1cc(CN(Cc2ccccc2)Cc2nc3ccccc3[nH]2)c(O)c(CN(Cc2nc3ccccc3[nH]2)Cc2nc3ccccc3[nH]2)c1 | 8.79 µM (inactive) | 8.69 µM (inactive) | 2.81 µM (inactive) | 23.4 µM (inactive) | 4.11 µM (inactive) | 5.94 µM (inactive) | 2.66 µM (inactive) | 6.43 µM (inactive) | 24.9 µM (inactive) | 16.2 µM (inactive) | 6.5 µM (inactive) | 12.4 µM (inactive) | 8.11 µM (inactive) | 2.92 µM (inactive) | 10.8 µM (inactive) | 5.2 µM (inactive) | 14.1 µM (inactive) | 4.71 µM (inactive) | 4.86 µM (inactive) | 7.03 µM (inactive)
N#C/C(=C\c1ccc2[nH]ccc2c1)C(=O)NCCCCNC(=O)/C(C#N)=C/c1ccc2[nH]ccc2c1 | > 100 µM (inactive) | > 31.6 µM (inactive) | > 31.6 µM (inactive) | > 10 µM (inactive) | > 31.6 µM (inactive) | > 31.6 µM (inactive) | > 10 µM (inactive) | > 10 µM (inactive) | > 31.6 µM (inactive) | > 31.6 µM (inactive) | > 31.6 µM (inactive) | > 10 µM (inactive) | > 31.6 µM (inactive) | > 31.6 µM (inactive) | > 31.6 µM (inactive) | > 31.6 µM (inactive) | > 31.6 µM (inactive) | > 31.6 µM (inactive) | > 31.6 µM (inactive) | > 31.6 µM (inactive)
CCN(CC)CC/N=c1\c2cc(OC)ccc2[nH]c2c([N+](=O)[O-])ccc(NCCN(CC)CC)c12 | 1.05 µM (active) | 2.33 µM (inactive) | 0.258 µM (active) | 2.37 µM (inactive) | 0.7 µM (active) | 2.88 µM (inactive) | 0.698 µM (active) | 1.12 µM (inactive) | 1.82 µM (inactive) | 1.14 µM (inactive) | 1.92 µM (inactive) | 0.706 µM (active) | 2.27 µM (inactive) | 1.06 µM (active) | 2.06 µM (inactive) | 0.794 µM (active) | 0.6 µM (active) | 2.11 µM (inactive) | 4.17 µM (inactive) | 1.17 µM (inactive)
C=CCN1C(=O)/C(=C\c2cc(C(C)(C)C)c(O)c(C(C)(C)C)c2)NC1=S | 24.3 µM (inactive) | 22.3 µM (inactive) | 0.879 µM (active) | 21.2 µM (inactive) | 17.3 µM (inactive) | 26 µM (inactive) | 20.7 µM (inactive) | 27.4 µM (inactive) | 7.19 µM (inactive) | 12.4 µM (inactive) | 12.1 µM (inactive) | 14.2 µM (inactive) | 36.1 µM (inactive) | 39.5 µM (inactive) | 14.1 µM (inactive) | 41.9 µM (inactive) | 20.6 µM (inactive) | 25 µM (inactive) | 15.6 µM (inactive) | 28.8 µM (inactive)
O=c1[nH]c(=O)n(C/C=C/CO)nc1Br | > 100 µM (inactive) | > 100 µM (inactive) | > 100 µM (inactive) | > 100 µM (inactive) | > 100 µM (inactive) | > 100 µM (inactive) | > 100 µM (inactive) | > 100 µM (inactive) | > 100 µM (inactive) | > 100 µM (inactive) | > 100 µM (inactive) | > 100 µM (inactive) | > 100 µM (inactive) | > 100 µM (inactive) | > 100 µM (inactive) | > 100 µM (inactive) | > 100 µM (inactive) | > 100 µM (inactive) | > 100 µM (inactive) | > 100 µM (inactive)
CC(C)CC(NC(=O)C(CI)Cc1ccccc1)C(=O)Nc1ccccc1 (stereo not given) | > 100 µM (inactive) | > 100 µM (inactive) | > 100 µM (inactive) | > 100 µM (inactive) |  | > 100 µM (inactive) | > 100 µM (inactive) | > 100 µM (inactive) | > 100 µM (inactive) | > 100 µM (inactive) | > 100 µM (inactive) | > 100 µM (inactive) |  | > 100 µM (inactive) | > 100 µM (inactive) | > 100 µM (inactive) | > 100 µM (inactive) | > 100 µM (inactive) | > 100 µM (inactive) | > 100 µM (inactive)
COc1c(C(=O)O)cccc1-c1cccc(C(=O)NCCN(CCNC(=O)c2cccc(-c3cccc(C(=O)O)c3OC)c2OC)CCNC(=O)c2cccc(-c3cccc(C(=O)O)c3OC)c2OC)c1OC | 49.5 µM (inactive) | 51.6 µM (inactive) | 35.2 µM (inactive) | 39 µM (inactive) | 20.7 µM (inactive) |  | 37.8 µM (inactive) | 5.58 µM (inactive) | 23.4 µM (inactive) | 33.3 µM (inactive) | 18.5 µM (inactive) | 27.9 µM (inactive) | 74.8 µM (inactive) | 37.2 µM (inactive) | 31.8 µM (inactive) | 52 µM (inactive) | 29.6 µM (inactive) | > 100 µM (inactive) | 62.7 µM (inactive) | > 100 µM (inactive)
COc1ccc2cc(CNCCCCCCNC(=O)Nc3cccc4ccccc34)ccc2c1 | > 100 µM (inactive) | > 100 µM (inactive) | > 100 µM (inactive) | > 100 µM (inactive) | > 100 µM (inactive) | > 100 µM (inactive) | > 100 µM (inactive) | > 100 µM (inactive) | > 100 µM (inactive) | > 100 µM (inactive) | > 100 µM (inactive) | > 100 µM (inactive) | > 100 µM (inactive) | > 100 µM (inactive) | > 100 µM (inactive) | > 100 µM (inactive) | > 100 µM (inactive) | > 100 µM (inactive) | > 100 µM (inactive) | 
Cc1ccnc2c1c(=O)c1ccccc1n2C |  | 22.1 µM (inactive) | 47.2 µM (inactive) | 52.2 µM (inactive) | 29.5 µM (inactive) | 39 µM (inactive) | 32.9 µM (inactive) | 34.3 µM (inactive) | 29.6 µM (inactive) | 19.1 µM (inactive) | 63.2 µM (inactive) | 31.8 µM (inactive) | 28 µM (inactive) | 29.9 µM (inactive) | 52.1 µM (inactive) | 15.4 µM (inactive) | 35.5 µM (inactive) | 26.3 µM (inactive) | 37.1 µM (inactive) | 12.9 µM (inactive)
